Source: US10137116B2, “Benzimidazole sulfide derivatives for the treatment or prevention of tuberculosis” (priority 2015, dated 2018)
Converted amounts (≈) assume the structure as drawn. “Also recorded” adds a separate entry of the source. Read-outs that look alike come from different tables or passages of the source.

Columns and labels:
Mtb H37Rv = experiment: microbe, parasite or virus in culture; format: cell-based, Mycobacterium tuberculosis; settings: for IC50: Mycobacterium tuberculosis, H37RV
[1] = tested on: intracellular Mtb-GFP (Mtb-Erdman) in MRC-5 fibroblasts; experiment: microbe, parasite or virus in culture; format: cell-based, Mycobacterium tuberculosis; settings: for activity in ex vivo assay: intracellular (ex vivo) assay; for IC50: Mycobacterium tuberculosis, ERDMAN, MRC5
[2] = Intracellular drug quantification in MRC-5 cells (LC/MS); format: in vitro ADME, human; settings: MRC-5 cells exposed to 2 μM, 48 hours
Experimental: For intracellular drug quantification, 20000 MRC-5 cells were seeded in 96 well plates and exposed to 2 μM of LPZ. At given time-points, cells were extensively washed with PBS and lysed with 0.1% Triton X-100 in PBS and acetonitrile (1:1 ratio). After spinning at 15,000 g at 4° C., samples were shock frozen in liquid nitrogen and stored at −80° C. for MS.
Quantification in 7H9 broth was performed with 500 nM of LPZ, acetonitrile was added in a 1:1 ratio at given time-points followed by spinning and shock freezing. The UPLC separation was done on an Agilent 1290 Infinity LC system including the 1290 Infinity LC system Binary Pump with integrated degasser, the High Performance Autosampler and a thermostatted column compartment. The samples (2 μL) were injected into a Zorbax Extend-C18 (2.1×50 mm, 1.8 μm) analytical column operated at 40° C., using H2O—HCOOH 0.1% and CH3CN—HCOOH 0.1% as mobile phases A and B (2 to 100% B in 5 min) at a flow rate of 0.4 mL/min. The UPLC system was interfaced with a 6530 Accurate-Mass Q-TOF LC/MS system (Agilent Technologies). Electrospray-ionisation MS data were acquired in the positive ionization mode, in the mass range m/z 100-1000 (2 spectra/s). […]
The intracellular LPZ and possible metabolites were quantified at different time-points over a period of 48 hours using LC/MS.

[3] = tested on: Mtb-Erdman infected MRC-5 human lung fibroblasts; experiment: Fibroblast survival assay (HTS): protection of MRC-5 lung fibroblasts from Mtb-induced cytotoxicity; format: cell-based, Mycobacterium tuberculosis; settings: for activity in fibroblast survival assay: concentrations up to 50 μM, FIG. 1
[4] = tested on: intracellular Mtb-GFP in RAW264.7 macrophages; experiment: microbe, parasite or virus in culture; format: cell-based; settings: Mycobacterium tuberculosis, FIG. 2B, read-out: IC50 (growth of intracellular bacteria)
[5] = Drug quantification in 7H9 broth (LC/MS); format: physicochemical; settings: 500 nM, 48 hours, FIG. 3C
Experimental: Quantification in 7H9 broth was performed with 500 nM of LPZ, acetonitrile was added in a 1:1 ratio at given time-points followed by spinning and shock freezing. The UPLC separation was done on an Agilent 1290 Infinity LC system including the 1290 Infinity LC system Binary Pump with integrated degasser, the High Performance Autosampler and a thermostatted column compartment. The samples (2 μL) were injected into a Zorbax Extend-C18 (2.1×50 mm, 1.8 μm) analytical column operated at 40° C., using H2O—HCOOH 0.1% and CH3CN—HCOOH 0.1% as mobile phases A and B (2 to 100% B in 5 min) at a flow rate of 0.4 mL/min. The UPLC system was interfaced with a 6530 Accurate-Mass Q-TOF LC/MS system (Agilent Technologies). Electrospray-ionisation MS data were acquired in the positive ionization mode, in the mass range m/z 100-1000 (2 spectra/s). Experimental parameters were set as follows: Fragmentor: 190V, Vcap: 3500 V, gas temperature: 300° C., sheath gas temperature: 350° C. External calibration was carried out with a solution of ESI_L (Agilent). Data were processed using MassHunter.
In mycobacterial growth medium, the results were markedly different. A rapid decay of LPZ was also observed confirming the instability of this drug. However, though LPZS was detectable in increasing amounts over time, it was not the major product of LPZ decay (FIG. 3C). […]

Mycobacterium avium = experiment: REMA MIC; format: cell-based
THP-1 = format: cell-based
Source text: (§1) Cytotoxicity of LPZS on THP1 macrophages, human liver hepatoma cells (HuH7-D12), human lung epithelial carcinoma cells (A549) and human embryonic liver cells (HepG2) (Table 5).

Pseudomonas putida = experiment: REMA MIC; format: cell-based
Enterococcus faecalis = experiment: REMA MIC; format: cell-based
[6] = tested on: Mycobacterium tuberculosis HN878 (Beijing strain); experiment: REMA MIC; format: cell-based
[7] = tested on: Mycobacterium abcessus 2005-0524; experiment: REMA MIC; format: cell-based; settings: 20050524
HepG2 = format: cell-based, human
Source text: as §1

Bacillus subtilis = experiment: REMA MIC; format: cell-based
Staphylococcus aureus = experiment: REMA MIC; format: cell-based
[8] = doses as high as 300 mg/kg twice a day
[9] = tested on: Mycobacterium smegmatis mc2155; experiment: microbe, parasite or virus in culture; format: cell-based; settings: Mycolicibacterium smegmatis
[10] = tested on: Mycobacterium tuberculosis Erdman; experiment: REMA MIC; format: cell-based
human proton pump = human proton pump (Homo sapiens, UniProt P20648); settings: cited from earlier work
human proton pump, sequence (P20648 whole entry): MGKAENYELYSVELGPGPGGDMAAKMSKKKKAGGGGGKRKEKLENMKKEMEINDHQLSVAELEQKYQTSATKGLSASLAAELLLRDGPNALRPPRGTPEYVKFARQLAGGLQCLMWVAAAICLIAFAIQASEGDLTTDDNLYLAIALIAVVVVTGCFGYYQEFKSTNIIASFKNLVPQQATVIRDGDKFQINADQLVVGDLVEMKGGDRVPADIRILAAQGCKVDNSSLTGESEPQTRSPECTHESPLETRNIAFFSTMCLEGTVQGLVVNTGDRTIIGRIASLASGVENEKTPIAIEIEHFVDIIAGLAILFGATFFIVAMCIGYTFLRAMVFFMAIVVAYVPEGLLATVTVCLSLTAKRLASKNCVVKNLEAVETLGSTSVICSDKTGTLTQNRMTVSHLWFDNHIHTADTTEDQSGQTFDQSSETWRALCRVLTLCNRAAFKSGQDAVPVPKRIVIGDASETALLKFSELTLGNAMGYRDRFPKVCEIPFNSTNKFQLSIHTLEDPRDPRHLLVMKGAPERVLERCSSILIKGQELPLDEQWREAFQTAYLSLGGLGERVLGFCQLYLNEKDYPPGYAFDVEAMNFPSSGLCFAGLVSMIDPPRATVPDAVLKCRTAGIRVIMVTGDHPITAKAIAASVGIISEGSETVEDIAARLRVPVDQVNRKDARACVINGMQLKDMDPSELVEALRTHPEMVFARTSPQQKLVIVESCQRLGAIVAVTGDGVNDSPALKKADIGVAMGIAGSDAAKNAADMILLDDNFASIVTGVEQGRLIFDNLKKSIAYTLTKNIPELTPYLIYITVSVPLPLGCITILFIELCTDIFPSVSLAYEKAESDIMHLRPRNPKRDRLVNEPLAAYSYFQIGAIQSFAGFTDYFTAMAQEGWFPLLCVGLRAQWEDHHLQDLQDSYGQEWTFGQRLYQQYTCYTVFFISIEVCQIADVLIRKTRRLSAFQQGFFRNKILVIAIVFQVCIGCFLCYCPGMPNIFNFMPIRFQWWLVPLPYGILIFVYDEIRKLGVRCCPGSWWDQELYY
human proton pump, sequence (P51164 whole entry partner): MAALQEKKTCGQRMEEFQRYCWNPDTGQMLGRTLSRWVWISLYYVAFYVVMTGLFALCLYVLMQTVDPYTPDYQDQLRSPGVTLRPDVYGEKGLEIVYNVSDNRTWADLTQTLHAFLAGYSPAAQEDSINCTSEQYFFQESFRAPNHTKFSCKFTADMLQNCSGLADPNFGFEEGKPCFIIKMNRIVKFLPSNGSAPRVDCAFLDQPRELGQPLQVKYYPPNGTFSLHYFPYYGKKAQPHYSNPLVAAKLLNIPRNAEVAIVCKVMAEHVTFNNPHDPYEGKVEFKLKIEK

Mycobacterium marinum M = experiment: REMA MIC; format: cell-based
[11] = tested on: Mycobacterium tuberculosis H37Rv; experiment: REMA MIC; format: cell-based
[12] = design: species or system BALB/c mice; settings: BALB/c, mouse, in vivo, 0.5 h
Experimental: For pharmacokinetic studies BALB/c mice (18-20 g) were given 100 mg/kg or 300 mg/kg LPZS in 20% TPGS (D-α tocopheryl polyethylene glycol 1000 succinate). At given time-points, blood from 3 mice was taken and, after spinning, serum was treated with acetonitrile (1:4 ratio). After a second spin, supernatants were frozen for LC/MS experiments.
BALB/c mice were given 100 mg/kg or 300 mg/kg of LPZS by oral gavage and serum levels were determined after 0.5, 1, 2, 4, 8 and 24 hours (FIG. 5).

Mtb-H37Rv = format: in vivo, BALB/c mice; settings: 300 mg/kg twice a day for 9 days, vs vehicle TPGS, FIG. 4
Candida albicans = experiment: REMA MIC; format: cell-based
Mtb strains = experiment: MIC, summary statement for Mtb strains; format: cell-based; settings: Mycobacterium tuberculosis; Mtb strains such as H37Rv, Erdman and HN878 (Table 3)
[13] = tested on: Corynebacterium glutamicum; experiment: REMA MIC; format: cell-based
[14] = tested on: Corynebacterium diphtheriae; experiment: REMA MIC; format: cell-based
Escherichia coli = experiment: REMA MIC; format: cell-based
Micrococcus Luteus = experiment: REMA MIC; format: cell-based
non-Mtb strains = experiment: MIC, summary statement for non-Mtb strains; format: cell-based; settings: other non-Mtb strains such as Mycobacterium abcessus 2005-0524 or Escherichia coli
Listeria monocytogenes = experiment: REMA MIC; format: cell-based
[15] = tested on: Mycobacterium massiliense 2005-0484; experiment: REMA MIC; format: cell-based; settings: Mycobacteroides abscessus, 20050484
[16] = tested on: Mycobacterium vaccae ATCC 15483; experiment: REMA MIC; format: cell-based; settings: Mycolicibacterium vaccae, ATCC15483
Salmonella typhimurium = experiment: REMA MIC; format: cell-based; settings: Salmonella enterica
Pseudomonas aeruginosa = experiment: REMA MIC; format: cell-based
[17] = tested on: Mycobacterium bolletii 1999-0888; experiment: REMA MIC; format: cell-based; settings: Mycobacteroides abscessus, 19990888
[18] = table values in μM or words, read-out: IC50 against Mtb in broth
[19] = table values in μM or words, read-out: IC50 intracellular

COc1ccc2[nH]c(SCc3ncc(C)cc3C)nc2c1
IC50 against Mtb in broth (Mtb H37Rv; table values in μM or words): inactive
IC50 intracellular ([1]; table values in μM or words): inactive

Cc1c(SCCN2CCc3ccccc3C2)ccnc1CSc1nc2ccccc2[nH]1
IC50 (Mtb H37Rv; [18]): 2.7 µM

FC(F)(F)Oc1ccc(C2CCN(c3ccc(CSc4nc5ccccc5[nH]4)cc3)CC2)cc1
IC50 (Mtb H37Rv; [18]): ~48 µM

COc1ccnc(C[S+]([O-])c2nc3cc(OC(F)F)ccc3[nH]2)c1OC.[Na+] (stereo not shown)
IC50 against Mtb in broth (Mtb H37Rv; table values in μM or words): Inactive
IC50 intracellular ([1]; table values in μM or words): Inactive

Cc1c(OCC(F)(F)F)ccnc1CS(=O)(=O)c1nc2ccccc2[nH]1
IC50 against Mtb in broth (Mtb H37Rv; table values in μM or words): Inactive
IC50 intracellular ([1]; table values in μM or words): Inactive

5-hydroxy Lansoprazole potassium
activity in in vitro assay (Mtb H37Rv): inactive
activity in ex vivo assay [1]: inactive

Cc1c(OCC(F)(F)F)ccnc1C[S+]([O-])c1nc2ccccc2[nH]1 (racemic) [LPZ, (RS)-2-([3-méthyl-4-(2,2,2-trifluoroéthoxy)pyridin-2-yl]méthylsulfinyl)-1H-benzimidazole]
IC50 (Mtb H37Rv; read-out: IC50 (Mtb in broth)): 32.8 µM
IC50 (Mtb H37Rv; read-out: IC50 (inhibit Mtb)): < 40 µM
IC50 (Mtb H37Rv; [18]): 32.8 µM
intracellular decay [2]: rapid intracellular decay
fibroblast survival / protection against Mtb induced killing [3]: supported fibroblast survival at rates comparable to well established anti-mycobacterial drugs such as Rifampicin and Moxifloxacine; also recorded: inhibits the growth of Mtb as well as Rifampicin or Moxifloxacine
IC50 [4]: 2.2 µM
decay in mycobacterial growth medium [5]: rapid decay
IC50 ([1]; MRC-5 cells, FIG. 2A, read-out: IC50 (Mtb-GFP signal)): 1.47 µM
IC50 [1, 19]: 1.47 µM

Cc1c(Cl)ccnc1CSc1nc2ccccc2[nH]1 [4-Desmethoxypropoxyl-4-chloro rabebrazole sulfide]
IC50 (Mtb H37Rv; read-out: IC50 (Mtb in broth)): 6 to 12 µM
IC50 (Mtb H37Rv; [18]): 6 to 12 µM
IC50 [1, 19]: 6 µM

Cc1c(OCC(F)(F)F)ccnc1CSc1nc2ccccc2[nH]1 [LPZS, Lanzoprazole sulfide]
MIC (Mycobacterium avium): > 100 µM
TD50 (THP-1): 75 µM
TD99 (THP-1): >100 µM
IC50 (Mtb H37Rv; read-out: IC50 (Mtb in broth)): 0.46 µM
IC50 (Mtb H37Rv; table values in nM, read-out: IC50 against Mtb in broth): 0.46 µM
MIC (Pseudomonas putida): > 100 µM
MIC (Enterococcus faecalis): > 100 µM
MIC [6]: 1.74 µM (≈ 0.615 µg/mL)
MIC [7]: > 100 µM
TD50 (HepG2): 25 µM
TD99 (HepG2): 100 µM
MIC (Bacillus subtilis): > 100 µM
MIC (Staphylococcus aureus): > 100 µM
signs of toxicity in mice [8]: no signs of toxicity
MIC [9]: > 100 µM
MIC [10]: 1.21 µM (≈ 0.428 µg/mL)
activity towards the human proton pump (human proton pump): no activity
MIC (Mycobacterium marinum M): 100 µM (≈ 35.3 µg/mL)
MIC [11]: 1.13 µM (≈ 0.399 µg/mL)
concentration in blood relative to Cmax [12]: 100 % of Cmax
bacterial burden (cfu) in the lungs (Mtb-H37Rv): significantly reduced
MIC (Candida albicans): > 100 µM
MIC (Mtb strains): < 2 µM
MIC [13]: > 100 µM
MIC [14]: > 100 µM
MIC (Escherichia coli): > 100 µM
MIC (Micrococcus Luteus): > 100 µM
MIC (non-Mtb strains): > 100 µM
MIC (Listeria monocytogenes): > 100 µM
IC50 ([1]; read-out: IC50 (intracellular activity)): 0.59 µM
IC50 ([1]; table values in nM, read-out: IC50 intracellular): 0.59 µM
MIC [15]: > 100 µM
MIC [16]: > 100 µM
MIC (Salmonella typhimurium): > 100 µM
MIC (Pseudomonas aeruginosa): > 100 µM
MIC [17]: > 100 µM

COc1ccc2[nH]c([S+]([O-])Cc3ncc(C)c(OC)c3C)nc2c1 (stereo not shown) [Omeprazole]
activity in in vitro assay (Mtb H37Rv): inactive
activity in fibroblast survival assay [3]: inactive
activity in ex vivo assay [1]: inactive

COc1ccnc(C[S+]([O-])c2nc3ccc(OC(F)F)cc3[nH]2)c1OC (stereo not shown) [Pantoprazole]
activity in in vitro assay (Mtb H37Rv): inactive
activity in fibroblast survival assay [3]: inactive
activity in ex vivo assay [1]: inactive

Cc1c(OCC(F)(F)F)ccnc1C[S+]([O-])c1nc2ccccc2[nH]1 (stereo not shown) [R-Lansoprazole]
IC50 (Mtb H37Rv; read-out: IC50 (inhibit Mtb)): < 40 µM
IC50 (Mtb H37Rv; [18]): 32.8 µM
IC50 [1, 19]: 1.47 µM

COCCCOc1ccnc(C[S+]([O-])c2nc3ccccc3[nH]2)c1C (stereo not shown) [Rabeprazole sodium]
IC50 (Mtb H37Rv; read-out: IC50 (Mtb in broth)): 25 µM
IC50 (Mtb H37Rv; read-out: IC50 (inhibit Mtb)): < 40 µM
IC50 (Mtb H37Rv; [18]): 25 µM
IC50 [1, 19]: 6 µM

COCCCOc1ccnc(CSc2nc3ccccc3[nH]2)c1C [Rabeprazole sulfide]
IC50 (Mtb H37Rv; read-out: IC50 (Mtb in broth)): 5 µM
IC50 (Mtb H37Rv; [18]): 5 µM
IC50 [1, 19]: 3 µM

COc1ccc2[nH]c([S+]([O-])Cc3ncc(C)c(OC)c3C)nc2c1 (stereo not shown) [drawing 26]
IC50 against Mtb in broth (Mtb H37Rv; table values in μM or words): Inactive
IC50 intracellular ([1]; table values in μM or words): Inactive
